This note sets out measurements from PubChem BioAssay AID489021 (Sanford-Burnham Center for Chemical Genomics, 2010).

Molecules are shown by their SMILES. Activity calls are given as the source filed them. How the calls were made is not given here.

The IC50 is the concentration needed to halve the response being measured.

This assay has as its system HEK-293T cytotoxicity, luminescence. The assay is described as follows: HEK-293T cell viability reduction – luminescence, B-cell screen hits, cytotoxicity control for BCR NF-kB inhibitor project, dose response (AID 489021).

As for `COc1ccc(/C=C\C(=O)O[C@@H]2C(O)C(O[C@@H]3OC(C)[C@H](O[C@@H]4OCC(O[C@H]5O[C@H](CO)[C@@H](O)C(O)C5O)C(O)C4O)C(O)C3O)[C@H](OC(=O)[C@]34CCC(C)(C)C[C@@H]3C3=CCC5[C@@]6(C)CC(O)C(O[C@@H]7OC(CO)C(O)[C@H](O)[C@H]7O)[C@@](C)(C(=O)O)C6CC[C@@]5(C)[C@]3(CO)CC4)O[C@H]2C)cc1` (stereo partly specified), the IC50 was 60.7 µM (inactive).
